As usually defined, the IC50 is the concentration needed to halve the response being measured. Low readings indicate greater potency in that assay, high ones weaker potency in that assay.

We go through three compounds from ChEMBL document CHEMBL1159378, “Continuing studies on the cyanobacterium Lyngbya sp.: isolation and structure determination of 15-norlyngbyapeptin A and lyngbyabellin D” (J Nat Prod, 2003).

The assay has as its system KB. Put plainly: Cytotoxicity against human KB cells. Type of assay: functional, cell-based.
For `CC[C@H](C)[C@@H](C(=O)N1CCC[C@H]1c1nccs1)N(C)C(=O)[C@H](CC(C)C)N(C)C(=O)[C@H](Cc1ccc(O)cc1)N(C)C(=O)/C=C(\C)OC` [15-NORLYNGBYAPEPTIN A], the IC50 was found to be 1.3 µM.

With `CCCC(=O)N[C@@H](C(C)C)[C@H](CC(=O)OC[C@@H](O)c1nc(C(=O)O[C@@H](CCCC(C)(Cl)Cl)[C@@H](C)C(=O)O[C@@H](c2nc(C(=O)OC)cs2)[C@](C)(O)CC)cs1)OC(C)=O` [LYNGBYABELLIN D], the concentration for half-maximal inhibition (IC50) came out at 0.1 µM.

Regarding `CC[C@H](C)[C@@H](C(=O)N1CCC[C@H]1c1nccs1)N(C)C(=O)[C@H](CC(C)C)N(C)C(=O)[C@H](Cc1ccc(OC)cc1)N(C)C(=O)/C=C(\C)OC` [LYNGBYAPEPTIN A], the IC50 is greater than 5 µM.
